Molecules are shown by their SMILES.

Sequence of ROCK2 (O75116 whole entry, species assumed): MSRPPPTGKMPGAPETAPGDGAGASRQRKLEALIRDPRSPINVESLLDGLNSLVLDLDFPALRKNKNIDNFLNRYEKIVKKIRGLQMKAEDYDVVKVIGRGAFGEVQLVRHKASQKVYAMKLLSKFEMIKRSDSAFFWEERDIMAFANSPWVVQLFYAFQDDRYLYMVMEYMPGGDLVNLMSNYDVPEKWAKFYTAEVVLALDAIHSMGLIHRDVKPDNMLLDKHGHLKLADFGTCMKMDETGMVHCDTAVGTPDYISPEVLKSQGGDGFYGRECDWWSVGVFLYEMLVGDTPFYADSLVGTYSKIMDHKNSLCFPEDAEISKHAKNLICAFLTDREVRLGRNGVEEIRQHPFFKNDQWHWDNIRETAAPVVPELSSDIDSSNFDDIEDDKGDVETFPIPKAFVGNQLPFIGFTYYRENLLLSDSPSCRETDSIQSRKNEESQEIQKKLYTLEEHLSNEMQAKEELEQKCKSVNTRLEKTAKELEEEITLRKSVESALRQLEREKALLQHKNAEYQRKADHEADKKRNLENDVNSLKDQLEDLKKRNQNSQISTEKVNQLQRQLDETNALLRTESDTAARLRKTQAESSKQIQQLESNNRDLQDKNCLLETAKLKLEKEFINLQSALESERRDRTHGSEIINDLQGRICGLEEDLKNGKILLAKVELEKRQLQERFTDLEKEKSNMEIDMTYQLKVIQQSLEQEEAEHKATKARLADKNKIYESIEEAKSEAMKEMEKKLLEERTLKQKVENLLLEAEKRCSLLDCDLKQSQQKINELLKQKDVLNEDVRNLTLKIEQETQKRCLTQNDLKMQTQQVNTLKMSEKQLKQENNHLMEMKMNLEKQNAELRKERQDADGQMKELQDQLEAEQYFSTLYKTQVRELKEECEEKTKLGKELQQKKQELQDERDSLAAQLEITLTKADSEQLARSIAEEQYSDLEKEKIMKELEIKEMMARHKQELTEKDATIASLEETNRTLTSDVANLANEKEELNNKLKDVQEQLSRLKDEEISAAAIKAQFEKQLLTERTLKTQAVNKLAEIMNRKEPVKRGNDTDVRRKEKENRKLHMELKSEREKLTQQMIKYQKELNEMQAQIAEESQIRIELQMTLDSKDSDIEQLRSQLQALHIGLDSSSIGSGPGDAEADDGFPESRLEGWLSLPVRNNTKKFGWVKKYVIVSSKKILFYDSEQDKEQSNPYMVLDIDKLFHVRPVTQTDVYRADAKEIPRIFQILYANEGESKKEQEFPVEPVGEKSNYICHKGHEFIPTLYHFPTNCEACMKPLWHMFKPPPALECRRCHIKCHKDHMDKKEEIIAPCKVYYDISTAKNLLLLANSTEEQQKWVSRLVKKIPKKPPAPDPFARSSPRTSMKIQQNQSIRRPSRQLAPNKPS

This assay addresses ROCK2 (Homo sapiens (Human), UniProt O75116). As to the kind of experiment: ROCK2 assay (peptide phosphorylation, LABCHIP 3000 Reader). The following applies: 5 μM ATP, 1.5 μM peptide substrate, dose-response. It is filed as biochemical. The protocol: After incubation, the reaction was terminated by the addition of EDTA and the phosphorylated and non-phosphorylated peptides separated using a LABCHIP®3000 Reader (Caliper Life Sciences). […] Compounds were tested in dose-response format, and the inhibition of kinase activity was calculated at each concentration of compound. […] Representative Examples were tested in the ROCK2 assay described above and found having ROCK2 inhibitory activity.
`NC(=O)c1sc(C2CC2)nc1O[C@H]1C[C@@]2(C[C@H](NC(=O)c3nc(C(F)(F)F)n4ccccc34)C2)C1` (stereo partly drawn) [Example 64, 2-cyclopropyl-4-{[(aR)-6-[3-(trifluoromethyl)imidazo[1,5-a]pyridine-1-amido]spiro[3.3]heptan-2-yl]oxy}-1,3-thiazole-5-carboxamide] showed a half-inhibitory concentration (IC50) of 11.4 nM.

In the case of `[H][C@]1(Oc2nn3ccccc3c2C(N)=O)C[C@]2(C[C@@H](NC(=O)c3cnn4c(C5CC5)c(OCC(C)(C)O)ccc34)C2)C1` (stereo partly drawn) [Example 6], it took 25.6 nM to reach half-maximal inhibition (IC50).

For the compound `NC(=O)c1cn(-c2ccccc2)nc1O[C@H]1C[C@@]2(C[C@H](NC(=O)c3cnn4cc(OCCC(F)(F)F)ccc34)C2)C1` (stereo partly drawn) [Example 40, 1-phenyl-3-{[(aR)-6-[6-(3,3,3-trifluoropropoxy)pyrazolo[1,5-a]pyridine-3-amido]spiro[3.3]heptan-2-yl]oxy}-1H-pyrazole-4-carboxamide], the IC50 worked out at 136 nM.

As for `NC(=O)c1sc(C2CC2)nc1O[C@H]1C[C@@]2(C[C@H](NC(=O)c3nc(C(F)(F)F)n4cc(-c5ccc(F)nc5)ccc34)C2)C1` (stereo partly drawn) [Example 63, 2-cyclopropyl-4-{[(aR)-6-[6-(6-fluoropyridin-3-yl)-3-(trifluoromethyl)imidazo[1,5-a]pyridine-1-amido]spiro[3.3]heptan-2-yl]oxy}-1,3-thiazole-5-carboxamide], the 50% inhibitory concentration (IC50) came to 6.1 nM.

Compound `Cc1nc(O[C@H]2C[C@@]3(C[C@H](NC(=O)c4cnn5cc(OCC(F)F)ccc45)C3)C2)c(C(N)=O)s1` (stereo partly drawn) [Example 70, 2-methyl-4-{[(aR)-6-[6-(2,2-difluoroethoxy)pyrazolo [1,5-a]pyridine-3-amido]spiro[3.3]heptan-2-yl]oxy}-1,3-thiazole-5-carboxamide] gave a 50% inhibitory concentration (IC50) of 45.4 nM.

The compound `COc1ccc2c(C(N)=O)c(O[C@H]3C[C@@]4(C[C@H](NC(=O)c5nn(C(F)F)c6cc(OCC(C)(C)O)ccc56)C4)C3)nn2c1` (stereo partly drawn) [Example 124, 1-(difluoromethyl)-6-(2-hydroxy-2-methylpropoxy)-N-[(4s)-6-({3-carbamoyl-6-methoxypyrazolo[1,5-a]pyridin-2-yl}oxy)spiro[3.3]heptan-2-yl]-1H-indazole-3-carboxamide] came in with an IC50 of 90.4 nM.

`COc1nc(O[C@H]2CC3(C[C@H](NC(=O)c4cnn(-c5ccc(C#N)cc5)c4C)C3)C2)c(C(N)=O)s1` (stereo partly drawn) [Example 112, 4-(((2S,4s,6)-6-(1-(4-cyanophenyl)-5-methyl-1H-pyrazole-4-carboxamido)spiro[3.3]heptan-2-yl)oxy)-2-methoxythiazole-5-carboxamide] had an IC50 of 205 nM.

With `Cc1c(C(N)=O)c(O[C@H]2C[C@@]3(C[C@H](NC(=O)c4cnn5c(C6CC6)c(OCC(C)(C)O)ccc45)C3)C2)nn1C` (stereo partly drawn) [Example 37, 3-({(aR)-6-[7-cyclopropyl-6-(2-hydroxy-2-methylpropoxy)pyrazolo[1,5-a]pyridine-3-amido]spiro[3.3]heptan-2-yl}oxy)-1,5-dimethyl-1H-pyrazole-4-carboxamide], the 50% inhibitory concentration (IC50) is 259 nM.

Compound `Cc1c(C(=O)N[C@H]2C[C@]3(C2)C[C@H](Oc2nc4c(cnn4C)cc2C(N)=O)C3)cnn1-c1ccc(S(C)(=O)=O)cc1` (stereo partly drawn) [Example 150, 1-(4-methanesulfonylphenyl)-5-methyl-N-[(4s)-6-({5-carbamoyl-1-methyl-1H-pyrazolo[3,4-b]pyridin-6-yl}oxy)spiro[3.3]heptan-2-yl]-1H-pyrazole-4-carboxamide] returned an IC50 of 7.1 nM.

For the compound `CC(CC1NC(=O)N([C@H]2C[C@@]3(C[C@H](Oc4nn5ccccc5c4C(N)=O)C3)C2)C1=O)C(F)(F)F` (stereo partly drawn) [Example 141, 2-{[(4s)-6-[2,5-dioxo-4-(3,3,3-trifluoro-2-methylpropyl)imidazolidin-1-yl]spiro[3.3]heptan-2-yl]oxy}pyrazolo[1,5-a]pyridine-3-carboxamide], it took 203 nM to reach half-maximal inhibition (IC50).

`NC(=O)c1cc2sccc2nc1OC1CC2(CC(NC(=O)c3cnn4ccccc34)C2)C1` (stereo not drawn) [Example 75, 5-[(6-{pyrazolo[1,5-a]pyridine-3-amido}spiro[3.3]heptan-2-yl)oxy]thieno[3,2-b]pyridine-6-carboxamide] showed an IC50 of 26.7 nM.

`CC(C)CNc1nnc(C(=O)N[C@H]2C[C@]3(C2)C[C@H](Oc2nc4c(cc2C(N)=O)COCC4)C3)s1` (stereo partly drawn) [Example 142, 5-[(2-methylpropyl)amino]-N-[(4s)-6-({3-carbamoyl-5H,7H,8H-pyrano[4,3-b]pyridin-2-yl}oxy)spiro[3.3]heptan-2-yl]-1,3,4-thiadiazole-2-carboxamide]: half-maximal inhibition (IC50) required 60.3 nM.

`NC(=O)c1cc2sccc2nc1OC1CC2(CC(NC(=O)C3CCC(F)(F)CC3)C2)C1` (stereo not drawn) [Example 77, 5-{[6-(4,4-difluorocyclohexane amido)spiro[3.3]heptan-2-yl]oxy}thieno[3,2-b]pyridine-6-carboxamide] gave an IC50 of 634 nM.

In the case of `NC(=O)c1cc2c(nc1O[C@H]1C[C@]3(C1)C[C@H](N1C(=O)CN(Cc4ccccc4)CC1=O)C3)CCOC2` (stereo partly drawn) [Example 13], it took 576 nM to reach half-maximal inhibition (IC50).

As for `CC(C)(O)COc1ccc2c(C(=O)N[C@H]3C[C@]4(C3)C[C@H](Oc3nn(C(F)F)cc3C(N)=O)C4)cnn2c1C1CC1` (stereo partly drawn) [Example 30, 3-({(aR)-6-[7-cyclopropyl-6-(2-hydroxy-2-methylpropoxy)pyrazolo [1,5-a]pyridine-3-aimdo]spiro[3.3]heptan-2-yl}oxy)-1-(difluoromethyl)-1H-pyrazole-4-carboxamide], the IC50 came to 7.7 nM.

Consider `Cc1csc2cc(C(N)=O)c(O[C@H]3C[C@@]4(C[C@H](NC(=O)c5cnn6cc(OCC(C)(C)O)ccc56)C4)C3)nc12` (stereo partly drawn) [Example 97, 3-methyl-5-{[(aR)-6-[6-(2-hydroxy-2-methylpropoxy)pyrazolo[1,5-a]pyridine-3-amido]spiro[3.3]heptan-2-yl]oxy}thieno[3,2-b]pyridine-6-carboxamide], for which the IC50 was determined as 12 nM.

As to `NC(=O)c1c(O[C@H]2C[C@@]3(C[C@H](NC(=O)c4cnn5cc(OCC(F)F)ccc45)C3)C2)nn2cc(F)ccc12` (stereo partly drawn) [Example 127, 6-fluoro-2-{[(4s)-6-[6-(2,2-difluoroethoxy)pyrazolo[1,5-a]pyridine-3-amido]spiro[3.3]heptan-2-yl]oxy}pyrazolo[1,5-a]pyridine-3-carboxamide], the half-maximal inhibitory concentration (IC50) was 113 nM.

As for `CC(C)(O)COc1ccc2c(C(=O)NC3CC4(C3)CC(Oc3nc5c(cc3C(N)=O)COCC5)C4)cnn2c1` (stereo not drawn) [Example 82, N-[6-({3-carbamoyl-5H,7H,8H-pyrano[4,3-b]pyridin-2-yl}oxy)spiro[3.3]heptan-2-yl]-6-(2-hydroxy-2-methylpropoxy) pyrazolo[1,5-a]pyridine-3-carboxamide], the midpoint of inhibition, the IC50, lay at 20 nM.

`Cn1ncc2cc(C(N)=O)c(O[C@H]3C[C@@]4(C[C@H](NC(=O)c5cnn6cc(OCC(C)(C)O)ccc56)C4)C3)nc21` (stereo partly drawn) [Example 101, 1-methyl-6-{[(aR)-6-[6-(2-hydroxy-2-methylpropoxy)pyrazolo [1,5-a]pyridine-3-amido]spiro[3.3]heptan-2-yl]oxy}-1H-pyrazolo[3,4-b]pyridine-5-carboxamide]: the IC50 is 6 nM.

`Cn1ncc2cc(C(N)=O)c(O[C@H]3C[C@@]4(C[C@H](NC(=O)c5nnc(-c6ccc(F)cc6F)s5)C4)C3)nc21` (stereo partly drawn) [Example 151, 5-(2,4-difluorophenyl)-N-[(4s)-6-({5-carbamoyl-1-methyl-1H-pyrazolo[3,4-b]pyridin-6-yl}oxy)spiro[3.3]heptan-2-yl]-1,3,4-thiadiazole-2-carboxamide] had an IC50 of 13.6 nM.

Consider `CC(C)(O)COc1ccc2c(C(=O)NC3CC4(C3)CC(Oc3nn(CC5CCNCC5)cc3C(N)=O)C4)cnn2c1C1CC1` [Example 20, 3-({(aR)-6-[7-cyclopropyl-6-(2-hydroxy-2-methylpropoxy)pyrazolo [1,5-a]pyridine-3-amido]spiro[3.3]heptan-2-yl}oxy)-1-[(piperidin-4-yl)methyl]-1H-pyrazole-4-carboxamide], for which the IC50 was 6.8 nM.

The compound `COc1ccc(-n2ncc(C(=O)N[C@H]3C[C@]4(C3)C[C@H](Oc3nn(C)cc3C(N)=O)C4)c2C)cn1` (stereo partly drawn) [Example 48, 1-(6-methoxypyridin-3-yl)-5-methyl-N-[(aR)-6-[(4-carbamoyl-1-methyl-1H-pyrazol-3-yl)oxy]spiro[3.3]heptan-2-yl]-1H-pyrazole-4-carboxamide] gave an IC50 of 685 nM.

`Cc1sc2cc(C(N)=O)c(O[C@H]3C[C@@]4(C[C@H](NC(=O)c5cnn6cc(OCC(C)(C)O)ccc56)C4)C3)nc2c1C` (stereo partly drawn) [Example 94, 2,3-dimethyl-5-{[(aR)-6-[6-(2-hydroxy-2-methylpropoxy)pyrazolo[1,5-a]pyridine-3-amido]spiro[3.3]heptan-2-yl]oxy}thieno[3,2-b]pyridine-6-carboxamide] returned an IC50 of 39 nM.

As for `NC(=O)c1cn(C2CC2)nc1O[C@H]1C[C@@]2(C[C@H](NC(=O)c3cnn4cc(OCC(F)(F)F)ccc34)C2)C1` (stereo partly drawn) [Example 56, 1-cyclopropyl-3-{[(aR)-6-[6-(2,2,2-trifluoroethoxy)pyrazolo [1,5-a]pyridine-3-amido]spiro[3.3]heptan-2-yl]oxy}-1H-pyrazole-4-carboxamide], half-maximal inhibition (IC50) required 53.2 nM.

`CC(C)(O)COc1ccc2c(C(=O)NC3CC4(C3)CC(Oc3nc5ccsc5cc3C(N)=O)C4)cnn2c1` (stereo not drawn) [Example 76, 5-({6-[6-(2-hydroxy-2-methylpropoxy)pyrazolo[1,5-a]pyridine-3-amido]spiro[3.3]heptan-2-yl}oxy)thieno[3,2-b]pyridine-6-carboxamide]: inhibition was half-maximal at 6.8 nM (IC50).

Take `Cc1nc(O[C@H]2C[C@@]3(C[C@H](NC(=O)c4cnn(-c5ccc(C#N)cc5)c4C)C3)C2)c(C(N)=O)s1` (stereo partly drawn) [Example 43, 2-methyl-4-{[(aR)-6-[1-(4-cyanophenyl)-5-methyl-1H-pyrazole-4-amido]spiro[3.3]heptan-2-yl]oxy}-1,3-thiazole-5-carboxamide]: it took 119 nM to reach half-maximal inhibition (IC50).

Consider `COc1ccc2c(C(N)=O)c(O[C@H]3C[C@@]4(C[C@H](NC(=O)c5cnn6cc(OCC(F)F)ccc56)C4)C3)nn2c1` (stereo partly drawn) [Example 125, 6-methoxy-2-{[(4s)-6-[6-(2,2-difluoroethoxy)pyrazolo[1,5-a]pyridine-3-amido]spiro[3.3]heptan-2-yl]oxy}pyrazolo[1,5-a]pyridine-3-carboxamide], for which the IC50 is 316 nM.

Usually IC50 stands for the midpoint of a concentration-inhibition curve. High values mean weaker potency in that assay, low ones greater potency in that assay.
